A melting point compilation (Tetko et al.; mined from patent text by program, amines drawn as free bases though some values may be those of a salt)

melting point | SMILES
211 to 213 °C | CC(C)(C)C(=O)c1c[nH]c2ncc(-c3ccc(N4CCN(CCO)CC4)cc3)nc12
177 to 178 °C | COC(=O)Nc1c(Br)cc(S(=O)(=O)N(C)C)cc1Br
206 °C | CCN(C)CCOc1ccc(/C=C/C(=O)O)cc1
188 to 190 °C | O=Cc1c(Cl)ccc(C(=O)O)c1Cl
250 °C | CC1(C)Oc2ccc(Cl)cc2[C@@H](n2ccccc2=O)[C@@H]1O (relative stereo)
230 to 232 °C | CN(Cc1cc(C(F)(F)F)cc(C(F)(F)F)c1)C(=O)c1c(-c2ccc(F)cc2)c2c(c(=O)n1C)CCCN2C
197 to 198 °C | CCN(CC)c1ccc2nc3c4ccccc4c(=Nc4nc5ccc(OC)cc5s4)cc-3oc2c1
148 to 150 °C | CN(C)CCC1=Cc2ccc(NC(=O)c3ccc(-c4ccccc4)cc3)cc2CC1
121 to 123 °C | CCOC(=O)N=P(c1ccccc1)(c1ccccc1)c1ccccc1CN1CCCCC1
141 to 142 °C | COc1ccc2cc([C@H](C)C(=O)Oc3ccc(OCCO[N+](=O)[O-])cc3)ccc2c1
191 to 195 °C | O=C1NCCNc2c1cccc2[N+](=O)[O-]
208 to 210 °C | O=C(O)CCC(=O)c1ccc2c(c1)oc1ccccc12
203 to 205 °C | Cc1cc(C)c(C(=O)Nc2ccc(-n3nc(C(F)(F)F)cc3C(F)(F)F)cc2)c(C)c1
219 to 220 °C | Cn1c2ccccc2c2nc3c(C=O)cccc3nc21
314 to 316 °C | O=c1c2c[nH]c3cccnc3c-2nn1-c1ccccc1
227 °C | COc1ccc2cc(-c3nc(-c4ccc(C)cc4)no3)c(=O)oc2c1
177 to 178 °C | Cc1nc(-c2ccccc2)nc(-c2cccc([N+](=O)[O-])c2)c1CO
32 to 33 °C | CC(C)c1ccc(Cl)nn1
223 to 225 °C | CCOC(=O)c1ccccc1-c1ccc(Nc2cc(CC)nc3ccnn23)cc1
166 to 169 °C | CCc1noc(C)c1-c1[nH]c2ccccc2c1C(O)CCN(C)C (stereo not given)
160 to 163 °C | O=C(c1ccccc1)c1cc(Oc2cc(Cl)cc(Cl)c2)c2c(=O)c3ccccc3sc2c1
168 to 169 °C | Nc1nc(-c2cc(-c3c(F)cccc3Cl)no2)cs1
106 to 108 °C | CC(C(N)=O)c1ccc(Oc2ccccc2F)cc1 (stereo not given)

melting point | SMILES
270 to 272 °C | Cc1ccc(C(=O)Nc2cccc(C(F)(F)F)c2)cc1-c1ccc2cnncc2c1
230 °C | CC1(C2CCCC2)Cc2cc(OCC(=O)O)c(Cl)c(Cl)c2C1=NO (stereo not given)
103 to 104 °C | CCCc1nn(-c2ccc(C(F)(F)F)cn2)cc1CCCOc1nn(C)cc1CCC(=O)O
61 °C | O=C1CCC(c2ccc(F)c(F)c2)CC1
220 to 222 °C | CN(Cc1cc(C(F)(F)F)cc(C(F)(F)F)c1)C(=O)c1c(-c2ccc(F)cc2)c2nccnc2c(=O)n1C
276 to 278 °C | CN(C)C(=O)c1nn(-c2ccncc2)c(=O)c2c1c1ccc(Cl)cc1n2C
192 to 193 °C | Cc1oc(-c2ccccc2)nc1COc1ccc(C=NO)cc1
164 to 167 °C | Cc1cc(=O)oc2nn(Cc3cccs3)c(C)c12
124 to 125 °C | CC(=O)C(C)Oc1cc(N)c(Cl)cc1C(=O)NCCN(C)C (stereo not given)
81 to 82 °C | COc1ccc(S(=O)(=O)N(Cc2ccccc2)C(C(=O)NO)C(O)C(C)C)cc1 (stereo not given)
186 to 189 °C | O=c1ccoc2cc(OCCCNCC3COc4ccc(O)cc4O3)ccc12 (stereo not given)
58 to 61 °C | COc1cc(N)c(Cl)cc1C(=O)NCC1CCN(CCCCCN2C(=O)c3ccccc3C2=O)CC1
98 to 100 °C | CCOC(=O)CCC(=O)Nc1cccc(/C=C/c2nc(C3CCC3)cs2)c1
151 to 152 °C | O=C(O)CCCCOc1ccc2oc3ccccc3c(=O)c2c1
128 to 130 °C | COc1ccc(Cn2nnnc2C(O)c2ccccc2Cl)cc1 (racemic)
117 to 118 °C | O=C(Nc1ccccc1)N1CCN2C(=O)OC(c3ccccc3)(c3ccccc3)C2C1 (stereo not given)
149 to 153 °C | CC(C)COc1ccc(S(C)(=O)=O)cc1C(=O)O
139 °C | CC(C)Oc1ccc([N+](=O)[O-])cc1O
88.5 to 90 °C | CCNC(=O)CCC(=O)c1cnc2c(OC)cccc2c1Nc1ccccc1C
238 to 240 °C | CC1CCc2c(N3CCC(O)CC3)ccc3c(=O)c(C(=O)O)cn1c23 (stereo not given)
206 to 208 °C | CS(=O)(=O)c1ccc(-c2[nH]c(Cl)cc2-c2ccc(F)cc2)cc1
175 to 177 °C | Cn1c(COc2ccc(CC3SC(=O)NC3=O)cc2)nc2ccc(Oc3ccc(NC(=S)NCc4ccccc4)cc3)cc21 (stereo not given)
150 to 152 °C | C[C@@H](CN)CCC[C@@H](C)[C@H]1CC[C@H]2[C@@H]3CC=C4C[C@@H](O)CC[C@]4(C)[C@H]3CC[C@]12C

melting point | SMILES
207 to 208 °C | COC(=O)c1ccc(Cn2c(C)nc3ccccc32)c2ccccc12
89 to 90 °C | COc1cc(CO)c(OC)cc1Cl
154 to 155 °C | O=C(Nc1ccc(-n2nc(C(F)(F)F)cc2OC(F)F)cc1)c1cccc(F)c1F
258 to 259 °C | COc1ccc(C(=O)Nc2cc(NC(=O)c3ccc(O)cc3)ccc2C)cc1OC
177 to 180 °C | CCCc1c(OCCCCOc2ccc(C(=O)c3cccc(C(=O)O)c3)cc2CCC(=O)O)ccc2c1OCCC2=O
232 to 233 °C | Cc1c(C)c(N2C(=O)c3cc(Cl)c(Cl)cc3C2=O)c(C)c2c1OC(C)(C)C2c1ccc(F)cc1 (stereo not given)
196 to 198 °C | COC(=O)c1cc2cc(OC)c(OC)cc2c(-c2ccncc2)c1C(=O)OC
171 °C | CCc1nc(C)[nH]c1Sc1ccccc1
261 to 262 °C | O=C1NCCc2c(-c3ccc4ccccc4c3)[nH]c3cccc1c23
150 to 190 °C | COc1cc2c(cc1OC)C(NC=O)C(c1ccc3c(c1)OCO3)CC2 (stereo not given)
110 °C | CC(=O)c1c(Cl)cc(Cl)cc1OCC(=O)O
124 to 126 °C | COC(=O)/C=C(\C)C(C)Sc1nc(N)cc(Cl)n1 (stereo not given)
199 to 201 °C | O=C1NC(=O)C(=Cc2ccc3c(c2)CCC(Cc2ccccc2)N3Cc2ccccc2)S1 (stereo not given)
202 to 204 °C | COc1ccc(CC(=O)Nc2c(C)c(C)c3oc(C)c(-c4ccc(C(C)C)cc4)c3c2C)cc1
121 °C | CN(CCNC(=O)c1ccccc1)C(=O)c1ccccc1
185 to 186 °C | CC(C)(C)c1ccc2c(c1)C=C(C(=O)O)CC2
108 to 128 °C | CCCCC(CC(=O)Nc1cc(C(N)=O)ccc1C(C)(C)C)c1ccc(OCCCS(=O)(=O)CCC)cc1OC (stereo not given)
134 to 135 °C | Cc1cc(C)c([N+](=O)[O-])cc1N1CCCCC1=O
123 to 125 °C | COc1ccc(C(=O)CC2CSCCC2=O)cc1 (stereo not given)
91.5 to 93.5 °C | CCOC(=O)C(C(=O)OCC)c1ccc([N+](=O)[O-])cn1
112 °C | Clc1ccccc1-c1cnc(-c2ccccc2Cl)nc1
114 to 115 °C | COCCCS(=O)(=O)NC(=O)CCc1ccc(OC(C)C)cc1Oc1ncc(C(F)(F)F)cc1Cl
89 to 90.5 °C | COc1ccc(C2CCc3ccccc3C2O)cc1 (stereo not given)

SMILES | melting point
C#CC1CC2(CC#CC)C(O)CCC2C2C=CC3=CC(=O)CCC3C12 (stereo not given) | 195 to 198 °C
